Consider one molecule from patent US6500830B1, “Conversion of modification D to modification A of doxazosin mesylate” (Knoll Aktiengesellschaft, priority 1998, dated 2002).

Structures can show the parent of a compound that is named as a salt.

This data set can be described thus: Dissolution of doxazosin mesylate in recrystallisation solvents. It counts as physicochemical. From the text:
Although doxazosin is mostly used as monomesylate, the preparation of this salt has not to date been described. […] The product isolated after cooling the suspension contains chloroform, which is a solvent which is objectionable from the toxicological viewpoint and which can be removed only with difficulty and not without adverse effects on the active ingredient. […] In addition, the yield is poor and the material proves to be X-ray amorphous. […] Hot filtration of the suspension affords a small yield of the described ethanol modification A as residue on the filter. Cooling the filtrate results in only a moderate yield of impure A modification.

As for `COc1cc2nc(N3CCN(C(=O)C4COc5ccccc5O4)CC3)nc(N)c2cc1OC` (stereo not drawn) [doxazosin mesylate, 4-amino-2-[4-(1,4-benzodioxane-2-carbonyl)piperazin-1-yl]-6,7-dimethoxyquinazoline], the solubility in chloroform entry (75 times the amount of chloroform at the boiling point) was “does not dissolve”. The solubility in ethanol result (350 times the amount of ethanol at the boiling point of the solvent) is “does not dissolve”. Under “water, compared with chloroform”, the solubility in water result is recorded as “dissolves better in water”.
